Experimental data reported in paper PMC9578445, “Association of respiratory failure with inhibition of NaV1.6 in the phrenic nerve” (Channels, 2022).
Read-outs that look alike come from different tables or passages of the source.

Assays:
phrenic nerve = assay: Rat phrenic nerve firing assay; details: rat in vivo, measured at 30 minutes
Procedure: To determine direct effects on phrenic nerve activity, male CD rats were anesthetized and instrumented as described above for the CV/R assay. In addition, an incision was made in the ventral neck area and the right phrenic nerve identified anatomically and isolated via blunt dissection. The phrenic nerve was placed over a high impedance bipolar hook electrode and the nerve covered with mineral oil to prevent desiccation. Animals were mechanically ventilated via a tracheotomy (~10 mL/kg, 40–70 breaths/min, titrated individually to stabilize phrenic activity) following neuromuscular block (pancuronium 0.5–1 mg/kg, iv) and bilateral vagotomy to better define test agent effects on phrenic nerve activity. Anesthesia was verified repeatedly following pancuronium administration by testing the BP/HR response to noxious stimuli. Spontaneous electrical activity was continuously recorded and then later rectified and averaged to calculate frequency, width, peak height of bursts, and magnitude. Magnitude of the activity was calculated by taking the absolute value of the raw signal and then averaging that signal over 50 ms increments. The resulting average signal was then converted to magnitude by subtracting the […] for each phrenic burst complex. The resulting magnitude values were then averaged over 1 minute increments to result in the graphs shown. Figure S1 in the Supplemental Information illustrates this analytical procedure.
(§1) For in vivo CVR and phrenic nerve activity studies, all raw signals were amplified via general purposed biological amplifier (filter settings DC – 3-5 KhZ) then digitized, calibrated and collected at a minimum of 500 Hz (1000 Hz for ECG and 2000 Hz for cardiac electrograms, and 10 KHz for phrenic nerve activity) using Notocord-HEM data acquisition and analysis software. The raw signal was filtered following acquisition with a bandpass filter set to 200–800 Hz). Vehicle (100% dimethylformamdide, DMF) or compound formulated in the vehicle was administered as a 30-minute IV infusion at 0.0167 μL/g body weight/min. Doses were selected to achieve unbound plasma concentrations in range of measured Nav1.6 IC50 values when infused at 0.0167uL/g body weight/min based on measured rat clearance, plasma protein binding and Nav1.6 IC50. Exposure in rats was determined in separate pharmacokinetics experiments where compounds were administered via IV dosing.

[1] = test system: anesthetized male CD rats; assay: Rat Cardiovascular/Respiratory (CV/R) assay; type: in vivo; design: ∆ QRS Interval: unit not given here; details: rat, IV infusion
Procedure: Male CD Rats were anesthetized with ketamine:xylazine (85 mg/kg:5 mg/kg, im, to effect). The left femoral artery and vein were cannulated for the measurement of blood pressure and the administration of test agent, respectively. The right femoral vein was cannulated for maintenance anesthetic infusion (ketamine:xylazine ~35 mg/kg/hr:1.5 mg/kg/hr, iv, to effect). Needle electrodes were placed subcutaneously at the right axillary and left inguinal areas to record lead II ECGs. When ECG intervals were required to determine effect on cardiac conduction a pacing/recording electrode catheter was advanced through the right jugular vein to pace the heart. ECG intervals were then measured at a fixed cardiac rate of 400 beats/minute to remove any variability of intrinsic heart rate on these parameters.
To determine the test agent-dependent effect on respiratory rate, a tracheotomy was also performed using a short length of polyethylene tubing containing a thermistor (AD Instruments). The change in temperature detected by the thermistor was used to calculate respiratory rate.
as §1

[2] = Plasma exposure in phrenic nerve activity assay; type: in vivo; details: rat; for concentration at 15 min / concentration at 30 min / concentration at 10 min: CD, plasma, intravenous; for concentration at 15 min / concentration at 30 min: 10 mg/kg
Text: as §1

[3] = Plasma exposure in rat CV/R assay; type: in vivo; details: rat, rat, IV infusion; for concentration at 15 min / concentration at 30 min: CD, plasma, iv
Text: as §1, with “Doses were selected to achieve unbound plasma concentrations in range of measured Nav1.6 IC50 values when infused at 0.0167uL/g body weight/min based on measured rat clearance, plasma protein binding and Nav1.6 IC50.” left out

[4] = test system: rat diaphragm with the phrenic nerve attached; assay: Rat hemisected diaphragm (HMD) assay, ex vivo
Text: Wistar derived male or female rats weighing 450 ± 50 g were euthanized by CO2 overexposure. The diaphragm with the phrenic nerve attached was removed and placed into a tissue recording chamber containing Krebs solution pH 7.4; (composition in g/L: NaCl 6.89, KCl 0.35, CaCl2 0.277, KH2PO4 0.163, MgSO4 · 7H2O 0.296, NaHCO3 2.1 and glucose 1.8). A piece of cotton was attached to the top of the phrenic nerve over the jaw electrodes. A second piece of cotton was attached to the tip of the tendinous tissue at the apex of the diaphragm preparation for attachment to an isometric transducer under 1 g tension. The rib of the diaphragm preparation was secured to the bottom of the jaw electrodes. […] The recording chamber was placed into a water bath kept at a temperature of 32°C by means of a suitable thermoregulator consisting of a thermostat and heating elements in addition to a water circulator.
The isometric transducer was connected to an amplifier and the tissue response was recorded on a two-pen recorder set at 1 volt. Field stimulation [S48 Stimulator (GRASS) set at 0.2 Hz (12 pulses per minute), 0.5 ms pulse duration at 70% of maximum voltage (about 3 to 5 volts)] delivered to two circle platinum electrodes (0.2 cm in diameter) was applied for transmural tissue stimulation. Each tissue preparation was washed three times in Krebs solution every 15 minutes for a 60 minute equilibration period and permitted to develop contractions. D-Tubocurarine (300 µM dissolved in 0.1 mL distilled water for a final 3 µM bath concentration) was added to establish an isometrically recorded control relaxation response ranging from one to two centimeters and corresponding to 60–70% of maximal relaxation. […] The tissue was then washed periodically until the contraction returns to the baseline value.
Sixty minutes later, the test compound was added (e.g. 30 mM in 0.01 mL vehicle of 100% DMSO, for final concentration of 30 µM test compound and 0.1% DMSO). A test compound recorded relaxation response of 50% or more (≥50%) within 5 minutes, relative to the 3 µM d-Tubocurarine control response, indicates neuromuscular blocking activity.

[5] = male, 3 mg/kg, 3 mg/kg, read-out: Total [plasma]
[6] = male, 3 mg/kg, 3 mg/kg, read-out: Unbound [plasma]
[7] = 30 mg/kg, 11 min, just prior to death

O=S(=O)(Nc1ncns1)c1cc(F)c(NCC23CCCN2CCC3)cc1F [SSCI-4]
percent decrease in the magnitude of the phrenic nerve signal (phrenic nerve): 50% | ∆ Heart Rate ([1]; 3 mg/kg, 15 min): −3.5 bpm | ∆ Mean Arterial Pressure ([1]; 3 mg/kg, 15 min): 6.4 mmHg | ∆ QRS Interval ([1]; 3 mg/kg, 15 min): 2.4 | ∆ respiratory rate ([1]; 3 mg/kg, 15 min): −24.7% | ∆ Heart Rate ([1]; 3 mg/kg, 30 min): −5.6 bpm | ∆ Mean Arterial Pressure ([1]; 3 mg/kg, 30 min): 2.4 mmHg | ∆ QRS Interval ([1]; 3 mg/kg, 30 min): 4.5 | ∆ respiratory rate ([1]; 3 mg/kg, 30 min): −26.1% | ∆ Heart Rate ([1]; 10 mg/kg, 15 min): 6.6 bpm | ∆ Mean Arterial Pressure ([1]; 10 mg/kg, 15 min): −5.5 mmHg | ∆ QRS Interval ([1]; 10 mg/kg, 15 min): 7.6 | ∆ respiratory rate ([1]; 10 mg/kg, 15 min): −17.8% | ∆ respiratory rate ([1]; 10 mg/kg, 25 min): −100% | ∆ respiratory rate ([1]; 30 mg/kg, 11 min): −100% | concentration at 15 min ([2]; read-out: Total [plasma]): 55.3 ± 5.5 µM | concentration at 15 min ([2]; read-out: Unbound [plasma]): 23.3 ± 2.61 µM | concentration at 30 min ([2]; read-out: Total [plasma]): 61.6 µM | concentration at 30 min ([2]; read-out: Unbound [plasma]): 29.3 µM | concentration at 10 min ([2]; 30 mg/kg, read-out: Total [plasma]): 91.4 µM | concentration at 10 min ([2]; 30 mg/kg, read-out: Unbound [plasma]): 43.5 µM | Total [plasma] ([2]; 30 mg/kg, 25–33 min): 108.234 ± 9.606 µM | Unbound [plasma] ([2]; 30 mg/kg, 25–33 min): 51.46 ± 4.56 µM | concentration at 15 min ([3]; 10 mg/kg, 10 mg/kg, read-out: Total [plasma]): 31.5 µM | concentration at 15 min ([3]; 10 mg/kg, 10 mg/kg, read-out: Unbound [plasma]): 15 µM | concentration at 15 min [3, 5]: 11.4 µM | concentration at 15 min [3, 6]: 5.4 µM | concentration at 30 min [3, 5]: 17.6 µM | concentration at 30 min [3, 6]: 8.4 µM | Total [plasma] ([3]; 10 mg/kg, 25 min, just prior to death): 39.3a μM | Total [plasma] [3, 7]: 89.7a μM | Unbound [plasma] [3, 7]: 42.7a μM | IC50 ([4]; Rattus norvegicus, relative to 3 μM d-Tubocurarine relaxation = 100%): 8.9 µM

COc1cc2c3cc1Oc1cc(ccc1O)C[C@@H]1c4c(cc(OC)c(O)c4Oc4ccc(cc4)C[C@@H]3N(C)CC2)CC[N+]1(C)C [d-Tubocurarine, D-Tubocurarine, reference compound]
relaxation, % of the maximal relaxation of the muscle ([4]; 3 μM, termed the 100% inhibition level): 60–70%
